The target of assay [1] is T1, Human PDGFRα, cytoplasmic domain (GST-PDGFRα) (Homo sapiens, UniProt P16234).
T1 construct: made in house
Briefly: Human PDGFRα biochemical inhibition assay (off-chip Mobility Shift Assay).

The target of assay [2] is T2, Human PDGFRβ, cytoplasmic domain (GST-PDGFRβ) (Homo sapiens, UniProt P09619).
T2 construct: made in house
Briefly: Human PDGFRβ biochemical inhibition assay (off-chip Mobility Shift Assay). An outline of the steps:
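GST-tagged cytoplasmic domain (aa 557-1106) from baculovirus was incubated 1 h at room temperature with compound, CSKtide, ATP at Km and Mg²⁺ in HEPES buffer, pH 7.5. Phosphorylated and unphosphorylated peptide were separated by off-chip mobility shift, and the product ratio P/(P+S) gave percent inhibition.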

The text below walks through data of patent US20230102554A1 (GB002, INC., priority 2019, published 2023).

T2 sequence (P09619 with tags, fused parts or gaps): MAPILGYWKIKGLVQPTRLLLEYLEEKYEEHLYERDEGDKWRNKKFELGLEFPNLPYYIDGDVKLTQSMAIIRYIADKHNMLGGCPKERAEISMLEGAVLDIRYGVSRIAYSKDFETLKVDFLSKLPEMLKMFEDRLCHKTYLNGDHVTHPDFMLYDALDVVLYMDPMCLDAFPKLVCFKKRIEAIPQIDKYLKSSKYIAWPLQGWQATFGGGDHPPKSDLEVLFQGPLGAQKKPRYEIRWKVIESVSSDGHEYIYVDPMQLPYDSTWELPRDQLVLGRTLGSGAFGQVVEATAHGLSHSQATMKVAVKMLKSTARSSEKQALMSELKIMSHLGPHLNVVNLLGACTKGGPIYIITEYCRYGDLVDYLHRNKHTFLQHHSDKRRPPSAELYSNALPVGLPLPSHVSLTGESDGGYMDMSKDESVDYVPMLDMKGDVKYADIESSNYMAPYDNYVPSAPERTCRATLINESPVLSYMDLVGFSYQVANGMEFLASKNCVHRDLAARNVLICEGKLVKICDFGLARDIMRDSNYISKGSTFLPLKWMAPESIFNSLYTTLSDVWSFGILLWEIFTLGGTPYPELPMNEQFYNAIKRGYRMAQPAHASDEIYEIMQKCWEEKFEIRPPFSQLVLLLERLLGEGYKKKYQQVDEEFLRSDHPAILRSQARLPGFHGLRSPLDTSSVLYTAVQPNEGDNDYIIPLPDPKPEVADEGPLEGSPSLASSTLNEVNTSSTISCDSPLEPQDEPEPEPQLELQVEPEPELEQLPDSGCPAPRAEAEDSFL
T1 sequence (P16234 550-1089 T674I): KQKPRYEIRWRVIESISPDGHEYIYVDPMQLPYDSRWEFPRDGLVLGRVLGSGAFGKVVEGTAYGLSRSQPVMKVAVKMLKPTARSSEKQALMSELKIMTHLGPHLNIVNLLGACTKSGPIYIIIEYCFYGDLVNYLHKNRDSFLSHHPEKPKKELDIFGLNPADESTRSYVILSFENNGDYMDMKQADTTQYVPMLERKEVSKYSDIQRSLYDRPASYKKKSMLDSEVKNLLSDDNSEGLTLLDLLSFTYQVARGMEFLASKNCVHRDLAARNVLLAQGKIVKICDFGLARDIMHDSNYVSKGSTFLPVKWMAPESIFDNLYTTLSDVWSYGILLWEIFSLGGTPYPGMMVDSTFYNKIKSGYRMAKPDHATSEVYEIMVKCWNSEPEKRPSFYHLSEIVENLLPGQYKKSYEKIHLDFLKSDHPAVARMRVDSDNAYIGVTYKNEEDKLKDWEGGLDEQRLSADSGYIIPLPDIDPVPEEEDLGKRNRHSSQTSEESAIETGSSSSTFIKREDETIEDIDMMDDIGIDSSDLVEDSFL

As usually defined, the IC50 is the concentration that inhibits the measured activity by half. Turning to `Cc1cncc(C(=O)Nc2cccc([C@H](C)Nc3cnc4ccsc4c3)c2)c1` [Compound 606, (S)-5-methyl-N-(3-(1-(thieno[3,2-b]pyridin-6-ylamino)ethyl)phenyl) nicotinamide], the IC50 in assay [1] and in assay [2] was less than 300 nM in each case.
Turning to `CCn1cc2ncc(N[C@@H](C)c3cccc(NC(=O)c4cc(F)c(CN5CC6(COC6)C5)c(Cl)c4)c3)nc2n1` [Compound 490, (S)-4-((2-oxa-6-azaspiro[3.3]heptan-6-yl)methyl)-3-chloro-N-(3-(1-((2-ethyl-2H-pyrazolo[3,4-b]pyrazin-6-yl)amino)ethyl)phenyl)-5-fluorobenzamide], the IC50 in assay [1] and in assay [2] was less than 300 nM throughout.
For `CCn1cc2ncc(N[C@@H](C)c3cccc(NC(=O)c4cncc(F)c4)c3)nc2n1` [Compound 355, (S)-N-(3-(1-((2-ethyl-2H-pyrazolo[3,4-b]pyrazin-6-yl)amino)ethyl)phenyl)-5-fluoronicotinamide], the values for the IC50 in assay [1] and in assay [2] were 300 to 1000 nM and not below 1000 nM, respectively.
In the same order, the values of `CCn1cc2ncc(N[C@@H](C)c3cccc(NC(=O)Cc4ccncc4)c3)nc2n1` [Compound 644, (S)-N-(3-(1-((2-ethyl-2H-pyrazolo[3,4-b]pyrazin-6-yl)amino)ethyl)phenyl)-2-(pyridin-4-yl)acetamide] are not below 1000 nM and not below 1000 nM.
Turning to `CCn1cc2ncc(N[C@@H](C)c3cc(NC(=O)c4ccc(OC(F)F)nc4)ccc3F)nc2n1` [Compound 304, (S)-6-(difluoromethoxy)-N-(3-(1-((2-ethyl-2H-pyrazolo[3,4-b]pyrazin-6-yl)amino)ethyl)-4-fluorophenyl)nicotinamide], the half-inhibitory concentration (IC50) in assay [1] and in assay [2] was less than 300 nM in each case.
Consider `C[C@H](Nc1cnc2cnn(C)c2n1)c1cccc(NC(=O)c2cnc(C3CC3)s2)c1` [Compound 140, (S)-2-cyclopropyl-N-(3-(1-((1-methyl-1H-pyrazolo[3,4-b]pyrazin-6-yl)amino)ethyl)phenyl)thiazole-5-carboxamide], for which the IC50 in assay [1] and in assay [2] was less than 300 nM in each case.
For `CCn1cc2ncc(N[C@@H](C)c3cccc(NC(=O)c4ccoc4)c3)nc2n1` [Compound 368, (S)-N-(3-(1-((2-ethyl-2H-pyrazolo[3,4-b]pyrazin-6-yl)amino)ethyl)phenyl)furan-3-carboxamide], the IC50 in assay [1] and in assay [2] was not below 1000 nM throughout.
Consider `Cc1cncc(C(=O)Nc2cccc([C@H](C)Nc3cnc4cc(F)c(F)cc4n3)c2)c1` [Compound 36, (S)-N-(3-(1-((6,7-difluoroquinoxalin-2-yl)amino)ethyl)phenyl)-5-methylnicotinamide], for which the IC50 in assay [1] and in assay [2] was less than 300 nM in each case.
On to `Cc1cc(C(=O)Nc2cccc([C@H](C)Nc3cnc4cnn(C)c4n3)c2)ccc1CN1CCN(C)CC1` [Compound 208, (S)-3-methyl-N-(3-(1-((1-methyl-1H-pyrazolo[3,4-b]pyrazin-6-yl)amino)ethyl)phenyl)-4-((4-methylpiperazin-1-yl)methyl)benzamide], for which the IC50 in assay [1] and in assay [2] was less than 300 nM each time.
As to `CCn1cc2ncc(N[C@@H](C)c3cccc(NC(=O)c4cnc(C5CC5)s4)c3)nc2n1` [Compound 296, (S)-2-cyclopropyl-N-(3-(1-((2-ethyl-2H-pyrazolo[3,4-b]pyrazin-6-yl)amino)ethyl)phenyl)thiazole-5-carboxamide], the IC50 in assay [1] and in assay [2] was less than 300 nM in each case.
As for `CCn1cc2ncc(N[C@@H](C)c3cccc(NC(=O)c4cnc(-c5cnn(C)c5)s4)c3)nc2n1` [Compound 342, (S)-N-(3-(1-((2-ethyl-2H-pyrazolo[3,4-b]pyrazin-6-yl)amino)ethyl)phenyl)-2-(1-methyl-1H-pyrazol-4-yl) thiazole-5-carboxamide], the figures for the IC50 in assay [1] and in assay [2] were 300 to 1000 nM and not below 1000 nM, respectively.
The corresponding values for `CCn1cc2ncc(N[C@@H](C)c3cc(NC(=O)Cc4ccc(F)cn4)ccc3C)nc2n1` [Compound 656, (S)-N-(3-(1-((2-ethyl-2H-pyrazolo[3,4-b]pyrazin-6-yl)amino)ethyl)-4-methylphenyl)-2-(5-fluoropyridin-2-yl) acetamide] are less than 300 nM and less than 300 nM.
As for `CCNc1ncc(C(=O)Nc2cccc([C@H](C)Nc3cnc4cn(CC)nc4n3)c2)cc1C` [Compound 333, (S)-N-(3-(1-((2-ethyl-2H-pyrazolo[3,4-b]pyrazin-6-yl)amino)ethyl)phenyl)-6-(ethylamino)-5-methylnicotinamide], the figures for the IC50 in assay [1] and in assay [2] were less than 300 nM and 300 to 1000 nM, respectively.
In the same order, the values of `C[C@H](Nc1cnc2cnn(C)c2n1)c1cccc(NC(=O)c2cnc3ccn(C)c3c2)c1` [Compound 46, (S)-1-methyl-N-(3-(1-((1-methyl-1H-pyrazolo[3,4-b]pyrazin-6-yl)amino)ethyl)phenyl)-1H-pyrrolo[3,2-b] pyridine-6-carboxamide] are less than 300 nM and less than 300 nM.
In the same order, the values of `CCn1cc2ncc(N[C@@H](C)c3cccc(NC(=O)c4ccc(CN5CC(O)C5)c(C)c4)c3)nc2n1` [Compound 496, (S)-N-(3-(1-((2-ethyl-2H-pyrazolo[3,4-b]pyrazin-6-yl)amino)ethyl)phenyl)-4-((3-hydroxyazetidin-1-yl)methyl)-3-methylbenzamide] are less than 300 nM and 300 to 1000 nM.
In the case of `CCn1cc(C(=O)Nc2cccc([C@H](C)Nc3cnc4cnn(C)c4n3)c2)cn1` [Compound 153, (S)-1-ethyl-N-(3-(1-((1-methyl-1H-pyrazolo[3,4-b]pyrazin-6-yl)amino)ethyl)phenyl)-1H-pyrazole-4-carboxamide], the IC50 in assay [1] and in assay [2] was less than 300 nM throughout.
In the case of `CCc1c[nH]c2ncc(N[C@@H](C)c3cccc(NC(=O)c4cncc(C)c4)c3)nc12` [Compound 564, (S)-N-(3-(1-((7-ethyl-5H-pyrrolo[2,3-b]pyrazin-2-yl)amino)ethyl)phenyl)-5-methylnicotinamide], the IC50 in assay [1] and in assay [2] was less than 300 nM throughout.
For `CCn1cc2ncc(N[C@@H](C)c3cccc(NC(=O)c4ccc(F)c(Cl)c4)c3)nc2n1` [Compound 343, (S)-3-chloro-N-(3-(1-((2-ethyl-2H-pyrazolo[3,4-b]pyrazin-6-yl)amino)ethyl)phenyl)-4-fluorobenzamide], the IC50 in assay [1] and in assay [2] was less than 300 nM throughout.
Take `Cc1cncc(C(=O)Nc2cccc([C@H](C)Nc3cnc4cnn(C5CCC5)c4n3)c2)c1` [Compound 178, (S)-N-(3-(1-((1-cyclobutyl-1H-pyrazolo[3,4-b]pyrazin-6-yl)amino)ethyl)phenyl)-5-methylnicotinamide]: the IC50 in assay [1] and in assay [2] was less than 300 nM in each case.
As for `CCn1cc2ncc(N[C@@H](C)c3cccc(NC(=O)c4ccc(N5CCCC5)nc4)c3)nc2n1` [Compound 375, (S)-N-(3-(1-((2-ethyl-2H-pyrazolo[3,4-b]pyrazin-6-yl)amino)ethyl)phenyl)-6-(pyrrolidin-1-yl)nicotinamide], the results for the half-maximal inhibitory concentration (IC50) in assay [1] and in assay [2] were less than 300 nM and 300 to 1000 nM, respectively.
The corresponding values for `CC1OC(=O)c2ccc(C(=O)Nc3cccc([C@H](C)Nc4cnc5cnn(C)c5n4)c3)cc21` (stereo partly drawn) [Compound 76, 3-methyl-N-(3-((S)-1-((1-methyl-N-pyrazolo[3,4-b]pyrazin-6-yl)amino)ethyl)phenyl)-1-oxo-1,3-dihydroisobenzofuran-5-carboxamide] are less than 300 nM and less than 300 nM.
On to `Cc1cc(C(=O)Nc2cccc([C@H](C)Nc3cnc4[nH]cc(-c5cnn(C)c5)c4n3)c2)cnc1C(F)(F)F` [Compound 576, (S)-5-methyl-N-(3-(1-((7-(1-methyl-1H-pyrazol-4-yl)-5H-pyrrolo[2,3-b]pyrazin-2-yl)amino)ethyl)phenyl)-6-(trifluoromethyl)nicotinamide], for which the IC50 in assay [1] and in assay [2] was less than 300 nM throughout.
Turning to `CCn1cc2ncc(N[C@@H](C)c3cc(NC(=O)Cc4ccc(F)c(C)n4)ccc3F)nc2n1` [Compound 674, (S)-N-(3-(1-((2-ethyl-2H-pyrazolo[3,4-b]pyrazin-6-yl)amino)ethyl)-4-fluorophenyl)-2-(5-fluoro-6-methylpyridin-2-yl) acetamide], the IC50 in assay [1] and in assay [2] was less than 300 nM each time.
Take `COc1ccc(NC(=O)c2cncc(C)c2)cc1CNc1cnc2ccccc2n1` [Compound 43, N-(4-methoxy-3-((quinoxalin-2-ylamino)methyl)phenyl)-5-methylnicotinamide]: the IC50 in assay [1] is 300 to 1000 nM; in assay [2], not below 1000 nM.
In the same order, the values of `C[C@H](Nc1cnc2cnn(C)c2n1)c1cccc(NC(=O)c2ccn(C(F)F)n2)c1` [Compound 155, (S)-1-(difluoromethyl)-N-(3-(1-((1-methyl-1H-pyrazolo[3,4-b]pyrazin-6-yl)amino)ethyl)phenyl)-1H-pyrazole-3-carboxamide] are less than 300 nM and not below 1000 nM.
The corresponding values for `CCn1cc2ncc(N[C@@H](C)c3cccc(NC(=O)Cc4ccc(C(C)C)cn4)c3)nc2n1` [Compound 709, (S)-N-(3-(1-((2-ethyl-2H-pyrazolo[3,4-b]pyrazin-6-yl)amino)ethyl)phenyl)-2-(5-isopropylpyridin-2-yl)acetamide] are 300 to 1000 nM and not below 1000 nM.
In the same order, the values of `CCn1cc(C(=O)Nc2cccc([C@H](C)Nc3cnc4[nH]nc(C)c4n3)c2)cn1` [Compound 545, (S)-1-ethyl-N-(3-(1-((3-methyl-1H-pyrazolo[3,4-b]pyrazin-5-yl)amino)ethyl)phenyl)-1H-pyrazole-4-carboxamide] are less than 300 nM and less than 300 nM.
Turning to `C[C@H](Nc1cnc2ccoc2n1)c1cc(NC(=O)c2ccc(C(F)(F)F)nc2)ccc1F` [Compound 617, (S)-N-(4-fluoro-3-(1-(furo[2,3-b]pyrazin-3-ylamino)ethyl)phenyl)-6-(trifluoromethyl) nicotinamide], the half-inhibitory concentration (IC50) in assay [1] and in assay [2] was less than 300 nM throughout.
